Measured values: PubChem BioAssay (NCI)
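Step 1: Grow cells in 96-well plates. Step 2: Expose to compound for 48 hours at 5 concentrations. Step 3: Interpolate endpoints linearly; if unreached, use highest concentration. GI50 is the concentration that inhibits growth by half. The concentration for full growth arrest is given as TGI.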

Tests used:
Assay in all cases: NCI anticancer screen, dose series, 48 h
CAKI-1 renal = system: CAKI-1 renal
HCT-116 colon = system: HCT-116 colon
HL-60(TB) leukemia = system: HL-60(TB) leukemia
MOLT-4 leukemia = system: MOLT-4 leukemia
NCI-H460 lung = system: NCI-H460 lung
RPMI-8226 leukemia = system: RPMI-8226 leukemia
SW-620 colon = system: SW-620 colon
HS 578T breast = system: HS 578T breast
MDA-MB-435 = system: MDA-MB-435
PC-3 prostate = system: PC-3 prostate

Row | Structure (SMILES) | TGI (CAKI-1 renal) [µM] | TGI (HCT-116 colon) [µM] | TGI (HL-60(TB) leukemia) [µM] | TGI (MOLT-4 leukemia) [µM] | TGI (NCI-H460 lung) [µM] | TGI (RPMI-8226 leukemia) [µM] | TGI (SW-620 colon) [µM] | GI50 (HCT-116 colon) [µM] | TGI (HS 578T breast) [µM] | TGI (MDA-MB-435) [µM] | TGI (PC-3 prostate) [µM] | GI50 (RPMI-8226 leukemia) [µM] | GI50 (SW-620 colon) [µM] | GI50 (CAKI-1 renal) [µM] | GI50 (HL-60(TB) leukemia) [µM] | GI50 (MOLT-4 leukemia) [µM] | GI50 (NCI-H460 lung) [µM] | GI50 (HS 578T breast) [µM] | GI50 (MDA-MB-435) [µM] | GI50 (PC-3 prostate) [µM]
1 | CCN(CC)C(=O)CC12CCCCC1=Nc1ccccc12 (stereo not given) | > 100 | > 100 | > 100 | > 100 | > 100 | > 100 | > 100 | – | – | – | – | – | – | – | – | – | – | – | – | –
2 | CN(C)c1ccc(/C=c2/c3cc(O)ccc3n3c2cc(-c2ccccc2)[n+]3C)cc1 | > 100 | – | 1.05 | – | – | – | – | 1.1 | 1.25 | 2.29 | 2.25 | 1.35 | 1.77 | – | – | – | – | – | – | –
3 | [CH3][Hg]/[N]=C(/N)NC#N | 25.7 | 27.9 | > 100 | > 100 | 88.7 | > 100 | 5.28 | 14.4 | – | – | – | 2.62 | 2.23 | 12.9 | 2.76 | 3.73 | 25 | – | – | –
4 | O=C(CC1(O)C(=O)Nc2ccccc21)c1ccccc1O (stereo not given) | > 100 | > 100 | > 100 | > 100 | > 100 | > 100 | > 100 | – | – | – | – | – | – | – | – | – | – | – | – | –
5 | O=C(CC(=O)c1cccc([N+](=O)[O-])c1)C(=O)Nc1ccccc1 | > 100 | > 100 | > 100 | > 100 | > 100 | > 100 | > 100 | – | – | – | – | – | – | – | – | – | – | – | – | –
6 | Cc1ccc(NC(=O)CC2SC(=Nc3ccc(Cl)cc3)NC2=O)cc1C (stereo not given) | 35.9 | 32.9 | 9.12 | 5.28 | 18.2 | 21.2 | 18.5 | – | – | – | – | – | – | – | – | – | – | – | – | –
7 | CN1C2(c3ccccc3)C(C(=O)c3ccccc3)=C(C(=O)c3ccccc3)C1(c1ccccc1)c1c(-c3ccccc3)sc(-c3ccccc3)c12 | > 100 | > 100 | > 100 | – | > 100 | > 100 | > 100 | – | – | – | – | – | – | – | – | – | – | – | – | –
8 | Cc1cc(C)nc(NS(=O)(=O)c2ccc(NC(=O)COC(=O)c3cccc4c(=O)c5ccccc5[nH]c34)cc2)n1 | > 100 | 55 | 63.9 | 84.8 | > 100 | > 100 | 83.9 | – | – | – | – | – | – | – | – | – | – | – | – | –
9 | Cc1ccccc1-n1c(CCl)nc2ccc(Br)cc2c1=O | 3.75 | 21.3 | 17 | 73.5 | 28 | 71.4 | 8.95 | – | – | – | – | – | – | – | – | – | – | – | – | –
10 | O=C(Cc1nc2ccccc2o1)C(=O)Nc1ccc(Cl)cc1Cl | > 100 | > 100 | – | – | > 100 | > 100 | > 100 | – | – | – | – | – | – | – | – | – | – | – | – | –
11 | CCn1ncc(N=O)c1N | > 100 | > 100 | – | > 100 | > 100 | > 100 | > 100 | – | > 100 | > 100 | > 100 | – | – | – | – | – | – | – | – | –
12 | CCc1ccccc1NC(=O)C(=O)C1C(=O)N(c2ccccc2)N=C1N (stereo not given) | > 100 | > 100 | > 100 | > 100 | > 100 | > 100 | > 100 | – | – | – | – | – | – | – | – | – | – | – | – | –
13 | O=C(/C=C/C=C/c1ccc2c(c1)OCO2)N/N=C\c1ccc(O)cc1O | 15.2 | 14.5 | 24.1 | 18.8 | 10.5 | – | 19.9 | 2.02 | 8.15 | 19 | 23.1 | – | 2.83 | 2.24 | 3.58 | 1.41 | 1.58 | 2.29 | 4.35 | 2.86
14 | NC(=O)c1csc(-c2ccc(CO)o2)n1 | > 100 | > 100 | > 100 | > 100 | > 100 | > 100 | > 100 | – | – | > 100 | > 100 | – | – | – | – | – | – | – | – | –
15 | N#C/C(=C\c1ccc[nH]1)C(=O)c1ccccc1 | > 100 | > 100 | > 100 | > 100 | > 100 | > 100 | > 100 | – | – | – | – | – | – | – | – | – | – | – | – | –
16 | Cc1c(C(=O)c2ccccc2)[n+](=O)c2cc(F)c(F)cc2n1[O-] | 3.45 | – | – | 80.4 | 5.17 | – | 3.14 | – | 4.68 | 5.43 | 14.1 | – | 1.43 | 1.88 | – | 1.04 | 2.27 | 2.08 | 2.2 | 3.37
17 | COC(=O)C1=CC(=O)[C@@H]2CCCC[C@H]12 | > 100 | > 100 | > 100 | > 100 | > 100 | > 100 | > 100 | – | – | – | – | – | – | – | – | – | – | – | – | –
18 | Cc1cc(C)c(/C=N/NS(=O)(=O)c2ccccc2)c(C)c1 | > 100 | > 100 | > 100 | > 100 | > 100 | > 100 | > 100 | – | – | – | – | – | – | – | – | – | – | – | – | –
19 | CN(C)C1CN(C(=O)c2cc(-c3ccc4ncnc(N5CCc6cc(F)c(Cl)cc65)c4c3)cnc2N)C1 | > 100 | – | 1.49 | – | > 100 | 2.7 | > 100 | 0.728 | 1.31 | – | > 23 | 0.489 | 1.48 | 0.509 | 0.151 | – | 0.574 | 0.241 | 0.687 | 0.398
20 | C[C@]12CCc3nn(-c4ccccc4)nc3C1CC[C@@H]1C2CC[C@]2(C)C(=O)CCC12 (stereo not given in full) | > 100 | > 100 | > 100 | > 100 | > 100 | > 100 | > 100 | – | – | – | – | – | – | – | – | – | – | – | – | –
21 | COC(=O)Nc1nc2ccc(C(=O)c3ccc(F)cc3)cc2[nH]1 | > 36.4 | > 100 | 0.608 | – | > 100 | – | > 100 | 0.146 | 0.502 | 0.155 | > 100 | 0.434 | 0.0922 | 2.34 | 0.107 | – | 0.336 | 0.146 | 0.0335 | 0.226
22 | COC(=O)C(C(=O)C(=O)Nc1ccccc1C)c1nc2ccc([N+](=O)[O-])cc2[nH]c1=O (stereo not given) | > 100 | > 100 | > 100 | > 100 | > 100 | > 100 | > 100 | – | – | – | – | – | – | – | – | – | – | – | – | –
